Test results reported in patent publication US20260263533A1, “COMBINATION OF BIFIDOBACTERIUM AND FUCOSYLATED HMO FOR USE IN INCREASING NMN OR NAD+” (DSM IP Assets B.V., priority 2022, published 2026).

What was measured:
[1] = tested on: B. bifidum 32403; assay: BioLector growth on carbon sources; format: cell-based, Bifidobacterium bifidum; conditions: for Ability to grow on carbon source: 1% carbon source in MRS without glucose, 37° C., up to 72 hours, anaerobic
Experimental: (§1) Initial overnight cultures in de Man, Rogosa, and Sharpe (MRS) medium with glucose (Merck, cat #110661) were prepared in an anaerobic chamber with mixed gas (90% N2, 5% CO2, and 5% H2) at 37° C. From the overnight cultures strains were subcultured 1:100 or 1:10 (if slow growing) into fresh MRS (with glucose) and grown to mid-log (without shaking) in the anerobic chamber at 37° C. For the carbohydrate utilization analysis, a BioLector (automated culturomics equipment, Biosciences) was used. Cells were inoculated 1:100 into MRS (without glucose, Liofilchem Cat #610144) in a 48 well MTP plate (Biosciences) containing 1% of one of the following carbon sources: glucose, lactose, a HMO mixture (containing 2′FL, 2′FL: DFL (range of 6:1-8:1), 3FL, 3′SL, 6′SL, LNnT and LNT in equal portions), HMO mixture+lactose or sterile DI water (as no sugar control) in a final volume of 2 mL and grown in the BioLector at 37° C. for up to 72 hours, shaking at 400 rpm under anaerobic conditions and continuous nitrogen gas flow. If a strain grew on the HMO mixture the experiment was repeated with the individual HMOs of the mixture as carbon source. Change in biomass, pH, and dissolved oxygen was monitored every 20 minutes by the BioLector. A minimum of two replicates were completed for each carbon source. Samples were transferred to a 96 deep-well plate, spun down at 4000 rpm for 10 min at 4° C., and supernatants removed for analysis or stored at −80° C. until further analysis.

[2] = tested on: B. bifidum HA-132; assay: BioLector growth on carbon sources; format: cell-based, Bifidobacterium bifidum; conditions: 1% carbon source in MRS without glucose, 37° C., up to 72 hours, anaerobic
Experimental: as §1

[3] = tested on: B. bifidum R0071; assay: BioLector growth on carbon sources; format: cell-based, Bifidobacterium bifidum; set-up: key: +++: fast exponential growth reaching a plateau before 45 hours; ++: slower exponential growth reaching a plateau after 45 hours; +: slow almost linear growth, does not reach plateau during the time of fermentation; −: No significant growth for 50 h or more; conditions: 1% carbon source in MRS without glucose, 37° C., up to 72 hours, anaerobic
Experimental: as §1

[4] = tested on: B. infantis HA-116; assay: BioLector growth on carbon sources; format: cell-based, Bifidobacterium infantis; set-up: key: +++: fast exponential growth reaching a plateau before 45 hours; ++: slower exponential growth reaching a plateau after 45 hours; +: slow almost linear growth, does not reach plateau during the time of fermentation; −: No significant growth for 50 h or more; conditions: 1% carbon source in MRS without glucose, 37° C., up to 72 hours, anaerobic
Experimental: as §1

[5] = tested on: B. infantis R0033; assay: BioLector growth on carbon sources; format: cell-based, Bifidobacterium infantis; set-up: key: +++: fast exponential growth reaching a plateau before 45 hours; ++: slower exponential growth reaching a plateau after 45 hours; +: slow almost linear growth, does not reach plateau during the time of fermentation; −: No significant growth for 50 h or more; conditions: 1% carbon source in MRS without glucose, 37° C., up to 72 hours, anaerobic
Experimental: as §1

[6] = tested on: B. bifidum R0071; assay: Metabolomics of culture supernatants (NMN, NAD+); format: cell-based, Bifidobacterium bifidum
Experimental: as §1, with “analysis. Sample supernatants were analyzed using metabolomics by Metabolon (NC, USA).” for “analysis.”

[7] = tested on: B. infantis HA-116; assay: Metabolomics of culture supernatants (NMN, NAD+); format: cell-based, Bifidobacterium infantis
Experimental: as §1, with “[…] Sample supernatants” for “Samples”, “analyzed using metabolomics by Metabolon (NC, USA).” for “transferred to a 96 deep-well plate, spun down at 4000 rpm for 10 min at 4° C., and supernatants removed for analysis or stored at −80° C. until further analysis.”

[8] = tested on: B. infantis R0033; assay: Metabolomics of culture supernatants (NMN, NAD+); format: cell-based, Bifidobacterium infantis
Experimental: as §1, with “[…] Sample supernatants” for “Samples”, “analyzed using metabolomics by Metabolon (NC, USA).” for “transferred to a 96 deep-well plate, spun down at 4000 rpm for 10 min at 4° C., and supernatants removed for analysis or stored at −80° C. until further analysis.”

[9] = tested on: L. reuteri DSM 12246; assay: BioLector growth on carbon sources; format: cell-based, Lactobacillus reuteri; conditions: FIG. 3B
Experimental: as §1, with “Samples were transferred to a 96 deep-well plate, spun down at 4000 rpm for 10 min at 4° C., and supernatants removed for analysis or stored at −80° C. until further analysis.” left out

[10] = tested on: L. plantarum TIFN101; assay: BioLector growth on carbon sources; format: cell-based, Lactobacillus plantarum; conditions: FIG. 3C
Experimental: as §1, with “Samples were transferred to a 96 deep-well plate, spun down at 4000 rpm for 10 min at 4° C., and supernatants removed for analysis or stored at −80° C. until further analysis.” left out

[11] = tested on: L. reuteri DSM 12246; assay: Metabolomics of culture supernatants (NMN, NAD+); format: cell-based, Lactobacillus reuteri
Experimental: as §1, with “[…] Sample supernatants” for “Samples”, “analyzed using metabolomics by Metabolon (NC, USA).” for “transferred to a 96 deep-well plate, spun down at 4000 rpm for 10 min at 4° C., and supernatants removed for analysis or stored at −80° C. until further analysis.”

[12] = tested on: L. plantarum TIFN101; assay: Metabolomics of culture supernatants (NMN, NAD+); format: cell-based, Lactobacillus plantarum
Experimental: as §1, with “[…] Sample supernatants” for “Samples”, “analyzed using metabolomics by Metabolon (NC, USA).” for “transferred to a 96 deep-well plate, spun down at 4000 rpm for 10 min at 4° C., and supernatants removed for analysis or stored at −80° C. until further analysis.”

Compound	Ability to grow on carbon source [1]	Ability to grow on carbon source [2]	Ability to grow on carbon source [3]	Ability to grow on carbon source [4]	Ability to grow on carbon source [5]	NMN production (in words) [6]	NAD+ production compared with growth on lactose (in words) [7]	NAD+ production compared with growth on lactose (in words) [8]	Growth on carbon source (in words) [9]	Growth on carbon source (in words) [10]	NAD+ production (in words) [6]	NAD+ production (in words) [11]	NAD+ production (in words) [12]	Growth on carbon source (in words) ([1]; BioLector, FIG. 3A, FIG. 6)
CC(=O)N[C@H]1[C@H]([C@H](O)[C@H](O)CO)O[C@@](O[C@H]2[C@@H](O)[C@@H](CO)O[C@@H](O[C@H]3[C@H](O)[C@@H](O)C(O)O[C@@H]3CO)[C@@H]2O)(C(=O)O)C[C@@H]1O (some centres unmarked) [3′SL, 3′-sialyllactose]	+++ (fast exponential growth reaching a plateau before 45 hours)	+++ (fast exponential growth reaching a plateau before 45 hours)	−	−	−									
CC(=O)N[C@H]1[C@H](O[C@H]2[C@@H](O)[C@@H](CO)O[C@@H](O[C@H]3[C@H](O)[C@@H](O)C(O)O[C@@H]3CO)[C@@H]2O)O[C@H](CO)[C@@H](O[C@@H]2O[C@H](CO)[C@H](O)[C@H](O)[C@H]2O)[C@@H]1O (mixture of isomers) [LNnT, lacto-N-neotetraose]	+++ (fast exponential growth reaching a plateau before 45 hours)	+++ (fast exponential growth reaching a plateau before 45 hours)	++ (slower exponential growth reaching a plateau after 45 hours)	+	−	low amounts								
CC(=O)N[C@H]1[C@H](O[C@H]2[C@@H](O)[C@@H](CO)O[C@@H](O[C@H]3[C@H](O)[C@@H](O)C(O)O[C@@H]3CO)[C@@H]2O)O[C@H](CO)[C@@H](O)[C@@H]1O[C@@H]1O[C@H](CO)[C@H](O)[C@H](O)[C@H]1O (some centres unmarked) [LNT, lacto-N-tetraose]	+++ (fast exponential growth reaching a plateau before 45 hours)	+++ (fast exponential growth reaching a plateau before 45 hours)	+++ (fast exponential growth reaching a plateau before 45 hours)	+	−	low amounts								
C[C@@H]1O[C@@H](O[C@H]2[C@H](O[C@H]3[C@H](O[C@@H]4O[C@@H](C)[C@@H](O)[C@@H](O)[C@@H]4O)[C@@H](O)C(O)O[C@@H]3CO)O[C@H](CO)[C@H](O)[C@@H]2O)[C@@H](O)[C@H](O)[C@@H]1O (some centres unmarked) [DFL, difucosyllactose]							a bit more	a bit more						
OC[C@H]1O[C@@H](O[C@H]2[C@H](O)[C@@H](O)C(O)O[C@@H]2CO)[C@H](O)[C@@H](O)[C@H]1O (some centres unmarked) [Lactose, lactose]	+++ (fast exponential growth reaching a plateau before 45 hours)	++ (slower exponential growth reaching a plateau after 45 hours)	+++ (fast exponential growth reaching a plateau before 45 hours)	+++ (fast exponential growth reaching a plateau before 45 hours)	+++ (fast exponential growth reaching a plateau before 45 hours)				capable of growing	capable of growing	able to produce NAD+	able to produce NAD+	able to produce NAD+	
CC(=O)N[C@H]1[C@H]([C@H](O)[C@H](O)CO)O[C@@](OC[C@H]2O[C@@H](O[C@H]3[C@H](O)[C@@H](O)[C@H](O)O[C@@H]3CO)[C@H](O)[C@@H](O)[C@H]2O)(C(=O)O)C[C@@H]1O [6′SL, 6′-sialyllactose]	+++ (fast exponential growth reaching a plateau before 45 hours)	+++ (fast exponential growth reaching a plateau before 45 hours)	−	−	−									
C[C@H](O)[C@@H](O)[C@@H](O)[C@H](O)C=O [L-fucose]														not able to grow
